Reference: US9090652B2, “Bile acid derivatives as FXR ligands for the prevention or treatment of FXR-mediated diseases or conditions” (Intercept Pharmaceuticals, Inc., priority 2006, dated 2015)
Values after ≈ are worked out from the molar mass of the structure shown. “Also recorded” adds a separate entry of the source. Counter-ions that a name gives are not always drawn. Like-named read-outs stand apart in the source and are kept apart here. Marks after values point to notes of the source that are not given here.

What was measured:
Critical micellar pH = format: physicochemical; conditions: CMpH=pKa+log CMC/WS
Source text: This value can be experimentally determined by evaluating the pH at which a given BA starts to precipitate from a micellar solution. It can be calculated from the CMC Water solubility of the protonated species and pKa using the formula: CMpH=pKa+log CMC/WS.

[1] = system: Intestinal bacteria (human stools cultures); test: Metabolic stability in human stools culture (7α-dehydroxylation); format: in vitro ADME
[2] = Critical micellar concentration by surface tension (maximum bubble-pressure); format: physicochemical; conditions: for CMC NaCl 0.15M: in NaCl 0.15 M; for CMC H2O: in water
Method: This value was determined by surface tension measurements using a maximum bubble-pressure method. The tensiometer was a Sensadyne 6000 (Chem-Dyne Research Corp., Milwaukee, Wis.) equipped with two glass probes of 0.5 and 4.0 mm diameters connected to a source of nitrogen. The bubble frequency was 1 bubble/second in distilled water at 26° C. (P=2.7 atm) and the calibration was made with double-distilled water and methanol. The surface tension of BA sodium salts solutions both in water and in NaCl 0.15 M was measured at various concentrations range, 0.2-75 mM and 0.3-100 mM respectively. The surface tension values were plotted against the logarithm of the bile salt concentration; the regression lines corresponding to the two parts of the curve (monomeric and micellar phases) were calculated using the method of least squares, and the intersection of the lines was taken as the CMC value.

[3] = 1-Octanol/water partition coefficient, shake-flask; conditions: pH 8, 0.1 mM bile salt
bovine serum albumin = biological target: T1, bovine serum albumin (Bos taurus, UniProt P02769); test: Albumin binding by equilibrium dialysis; format: in vitro ADME; conditions: 100 μM BA in 5% bovine serum albumin-saline, 25° C.
T1 construct: 5% bovine serum albumin-saline solution
T1 sequence (P02769 25-607): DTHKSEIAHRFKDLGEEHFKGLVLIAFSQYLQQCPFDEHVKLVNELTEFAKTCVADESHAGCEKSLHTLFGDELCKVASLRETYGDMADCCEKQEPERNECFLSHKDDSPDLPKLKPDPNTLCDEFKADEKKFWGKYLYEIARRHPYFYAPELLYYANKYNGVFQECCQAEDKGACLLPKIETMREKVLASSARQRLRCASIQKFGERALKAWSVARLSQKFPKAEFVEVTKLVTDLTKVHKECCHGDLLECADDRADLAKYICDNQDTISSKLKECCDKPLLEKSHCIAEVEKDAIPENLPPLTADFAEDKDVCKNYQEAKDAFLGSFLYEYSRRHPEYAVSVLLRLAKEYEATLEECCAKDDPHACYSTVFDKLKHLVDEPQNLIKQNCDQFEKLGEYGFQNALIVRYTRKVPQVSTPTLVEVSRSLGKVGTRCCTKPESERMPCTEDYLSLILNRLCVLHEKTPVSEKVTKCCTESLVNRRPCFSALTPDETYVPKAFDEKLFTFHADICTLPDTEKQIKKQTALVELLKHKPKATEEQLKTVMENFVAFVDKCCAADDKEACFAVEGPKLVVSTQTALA

[4] = Water solubility of protonated bile acids; conditions: 0.1 M HCl, pH 1, simulated gastric fluid, thermodynamic from solid
ANIT-induced cholestasis [5] = conditions: previous unpublished studies by Fiorucci et al.; cited from earlier work
[6] = Hepatic metabolism and biliary secretion in bile fistula rat after iv infusion; format: in vivo; conditions: for Main form / hepatic metabolite secreted in bile: at the administered dose
Method: The BA were administered by infusion to bile fistula rat and bile collected at 15 min intervals for 7 hours. The bile flow was measured and bile analyzed using HPLC-ES-MS-MS for the identification of the rate of biliary secretion and to evaluate the major hepatic metabolites.
Bile acids and their metabolites were determined by a liquid chromatography-tandem mass spectrometry (HPLC-MS/MS) method using electrospray (ESI) source in negative ionization mode. Rat bile samples were brought to room temperature and diluted 1:100 v/v-1:1000 v/v with 15 mM ammonium acetate buffer (pH=5). Then, 10 μL were injected into the chromatographic column. Liquid chromatography was performed using a Waters Alliance 2695 separation module coupled with autosampler. Bile acids were analyzed using a Synergi Hydro-RP C18 column (150×2.0 mm i.d., 4 μm particle size), protected by a SecurityGuard ODS 4×2.0 mm i.d. precolumn, both supplied from Phenomenex. Bile acids were separated in elution gradient using 15 mM ammonium acetate buffer (pH=5.00) as mobile phase A and acetonitrile as mobile phase B. Mobile phase B was increased from 30% to 64% in 12 min, then to 70% in 8 min, and finally brought to 100% in 10 min and held constant for 1 min. […] The column effluent was analysed by ESI-MS/MS using a Quattro-LC (Micromass) triple quadruple mass spectrometer operating in Multiple Reaction Monitoring (MRM) acquisition mode. MassLynx software version 4.0 was used for data acquisition and processing.

[7] = system: pancreatic esterases (pancreatin); test: Metabolic stability in simulated duodenal/pancreatic fluid (USP); format: in vitro ADME, porcine
[8] = values from literature, cited from earlier work; for CMC NaCl 0.15M: in NaCl 0.15 M; for CMC H2O: in water
[9] = value from literature; cited from earlier work
[10] = pH 1
[11] = pH 8
ANIT-induced cholestasis [12] = test: ANIT-induced cholestasis in rat; format: in vivo, Wistar rats; conditions: ANIT treated rats, ammonium salt
Method: Wistar Rats studies were approved by the Animal Study Committee of the University of Perugia. Male Wistar rats (200-250 g) were obtained from Charles River Breeding Laboratories (Portage, Mich.) and maintained on standard laboratory rat chow on a 12-h light/dark cycle. […] Control rats (N=4) were administered vehicle (physiologic solution I.P.). At the end of the study, rats were sacrificed under anaesthesia with sodium pentobarbital (50 mg/kg i.p.) and terminally bled via cardiac puncture; the liver was removed and weighted for examination and blood samples were taken. Rat genes expression was evaluated by quantitative real-time polymerase chain reaction (RT-PCR) as previously described herein.

[13] = system: FXR related genes in liver; test: FXR target gene expression in liver of intact mice (Real-Time PCR); format: in vivo, Balb/c mice; conditions: 4 days
FXR = biological target: T2, FXR (Homo sapiens, UniProt Q96RI1); test: Luciferase transactivation assay in transfected HepG2 cells; format: cell-based; conditions: ammonium salt
T2 construct: expressed in transfected cells; host or cells: HepG2
T2 sequence (Q96RI1 1-486): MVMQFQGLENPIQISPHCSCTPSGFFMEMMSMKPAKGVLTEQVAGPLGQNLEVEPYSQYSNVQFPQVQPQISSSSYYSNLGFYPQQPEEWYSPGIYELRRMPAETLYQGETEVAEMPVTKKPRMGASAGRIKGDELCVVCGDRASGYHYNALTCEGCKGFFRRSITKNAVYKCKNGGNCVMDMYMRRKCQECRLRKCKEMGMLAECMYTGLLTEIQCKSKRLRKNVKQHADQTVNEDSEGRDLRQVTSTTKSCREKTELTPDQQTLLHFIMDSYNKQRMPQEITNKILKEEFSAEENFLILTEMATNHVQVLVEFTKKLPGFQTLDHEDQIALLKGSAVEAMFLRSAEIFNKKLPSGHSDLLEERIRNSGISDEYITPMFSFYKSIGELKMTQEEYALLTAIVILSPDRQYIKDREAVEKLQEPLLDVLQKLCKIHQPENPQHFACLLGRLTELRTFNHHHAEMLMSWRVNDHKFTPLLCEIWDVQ
T2 sequence (P19793 1-462 partner): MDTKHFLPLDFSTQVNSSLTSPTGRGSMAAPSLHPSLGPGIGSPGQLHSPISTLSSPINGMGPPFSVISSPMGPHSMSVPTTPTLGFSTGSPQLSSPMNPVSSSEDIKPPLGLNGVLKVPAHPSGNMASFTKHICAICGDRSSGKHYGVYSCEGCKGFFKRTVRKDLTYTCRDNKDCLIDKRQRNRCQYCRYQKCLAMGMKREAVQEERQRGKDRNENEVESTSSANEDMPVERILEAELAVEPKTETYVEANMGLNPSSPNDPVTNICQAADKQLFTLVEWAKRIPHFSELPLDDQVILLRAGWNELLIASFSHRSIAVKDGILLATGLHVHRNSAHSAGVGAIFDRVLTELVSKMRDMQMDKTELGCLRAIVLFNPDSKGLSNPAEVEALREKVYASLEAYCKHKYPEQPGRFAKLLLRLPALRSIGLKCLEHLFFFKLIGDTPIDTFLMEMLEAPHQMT

[14] = 5 mg/kg intraperitoneal, ammonium salt

Row | CMpH (critical micellar pH) (Critical micellar pH) | LogPA− (1-octanol-water partition coefficient, ionized species) [3] | % Binding (albumin) (bovine serum albumin) [%] | SMILES | ST50: Surface Tension of 50 mM aqueous solution [2] [Dyne/cm] | STCMC: Surface Tension at CMC in water [2] [Dyne/cm] | CMC NaCl 0.15M [2] [mM] | CMC H2O [2] [mM] | further results
1 | 7.6 | 2.2 | 93 | C[C@H](CCC(=O)O)[C@H]1CC[C@H]2[C@@H]3[C@H](O)C[C@@H]4C[C@H](O)CC[C@]4(C)[C@H]3CC[C@]12C [CDCA, chenodeoxycholic acid] | 48.5 | 55.6 | 3.0 | 7.5 | Half-life time ([1]; human stool cultures): one; Metabolism (7-dehydroxylation to lithocholic acid) ([1]; human stool cultures, after 8 hours of incubation): almost completely metabolized
2 | 7.6 | 2.5 | 96 | CC[C@H]1[C@@H](O)[C@@H]2[C@H](CC[C@]3(C)[C@@H]([C@H](C)CCC(=O)O)CC[C@@H]23)[C@@]2(C)CC[C@@H](O)C[C@@H]12 [INT-747, 3α,7α-dihydroxy-6α-ethyl-5β-cholan-24-oic acid] | 43.2 | 48.8 | 2.9 | 4.5 | CMpH (critical micellar pH) (Critical micellar pH; listed as UPF 747): 7.7; Stability in human stool cultures [1]: very stable; solubility at 1 week [4]: 9 µM (≈ 3.79 µg/mL); Concentration at which a gel phase forms ([2]; in the presence of Na+ 0.15 M): > 60000 µM; Reduction of liver injury in ANIT model (ANIT-induced cholestasis [5]): not effective; Main form / hepatic metabolite secreted in bile [6]: taurine conjugate
3 |  | 0.9 |  | C[C@H](CCC(=O)NCCS(=O)(=O)O)[C@H]1CC[C@H]2[C@@H]3[C@H](O)C[C@@H]4C[C@H](O)CC[C@]4(C)[C@H]3CC[C@]12C [TCDCA] |  |  |  |  | CMC NaCl 0.15M [8]: 3.0* mM; CMC H2O [8]: 7.0* mM
4 |  |  | 67 | C[C@H](CCC(=O)NCCS(=O)(=O)O)[C@H]1CC[C@H]2[C@@H]3[C@@H](O)C[C@@H]4C[C@H](O)CC[C@]4(C)[C@H]3CC[C@]12C [TUDCA] |  |  |  |  | CMC NaCl 0.15M [8]: 2.2* mM; CMC H2O [8]: 8.0* mM; LogPA− (1-octanol-water partition coefficient, ionized species) [9]: 1.0*
5 |  |  |  | CC[C@H]1[C@@H](O)C2C3CCC(C(C)CCOS(=O)(=O)O)[C@@]3(C)CCC2[C@@]2(C)CC[C@@H](O)C[C@@H]12 (stereo partly drawn) [UPF-987, 3α,7α,23-trihydroxy-6α-ethyl-24-nor-5β-cholan-23-sulphate triethyl ammonium salt] |  |  |  |  | Liver injury / cholestasis (plasma AST, γGT, alkaline phosphatase, cholesterol) (ANIT-induced cholestasis [12]; UPF-987 5 and 3 mg/kg daily): attenuates liver injury; also recorded: reduces ANIT; Liver expression of NTCP, CYP7A1 and BSEP (ANIT-induced cholestasis [12]): modulates liver; Liver BSEP expression [13, 14]: potent induction; also recorded: induces liver; Liver SHP expression [13, 14]: potent induction; also recorded: induces liver; Downregulation of liver Cyp7a1 ([13]; 5 mg/kg): 60-70%; Liver FAS mRNA expression ([13]; 5 mg/kg, ammonium salt): reduced; inhibition at 5 mg/kg ([13]; Mus musculus, 96 h, read-out: Inhibition of liver SREBP-1c): 90%; Transactivation of FXR (FXR): transactivates FXR

Row | SMILES | CMpH (critical micellar pH) (Critical micellar pH) | LogPA− (1-octanol-water partition coefficient, ionized species) [3] | % Binding (albumin) (bovine serum albumin) [%] | ST50: Surface Tension of 50 mM aqueous solution [2] [Dyne/cm] | STCMC: Surface Tension at CMC in water [2] [Dyne/cm] | CMC NaCl 0.15M [2] [mM] | CMC H2O [2] [mM] | further results
6 | CC[C@H]1[C@@H](O)C2C3CCC(C(C)CCOS(=O)(=O)[O-])[C@@]3(C)CCC2[C@@]2(C)CC[C@@H](O)C[C@@H]12.[Na+] (stereo partly drawn) [INT-1103, 3α,7α,23-trihydroxy-6α-ethyl-24-nor-5β-cholan-23-sulphate sodium salt] |  | 2.0 | 85 | 43.3 | 47.9 | 1.3 | 3.9 | Stability in human stool cultures [1]: very stable; Stability in simulated pancreatic fluid ([7]; 50 μM, 37° C., up to 240 min): very stable; Hydrolysis of ester bond (sulphate) by pancreatic esterases ([7]; simulated pancreatic fluid): not hydrolyzed; Main form / hepatic metabolite secreted in bile [6]: 3-glucoronide; Amount of administered dose secreted into bile ([6]; iv infusion 3 umol/Kg/min, bile collected 7 hours): 30-40%
7 | C[C@H](CCC(=O)O)[C@H]1CC[C@H]2[C@@H]3[C@@H](O)C[C@@H]4C[C@H](O)CC[C@]4(C)[C@H]3CC[C@]12C [UDCA] | 8.4 |  | 94 | 50.4 | 63.0 | 6.0 | 26 | Water Solubility [10]: 7.5 µM; LogPA− (1-octanol-water partition coefficient, ionized species) [11]: 2.2
